In patent US8632749B2, “Two photon tracer, method for the preparation thereof and the use thereof in screening anticancer agents” (SNU R&DB Foundation, priority 2009, dated 2014):
Like-named read-outs stand apart in the source and are kept apart here.

Key:
[1] = One-photon absorption/emission spectra and fluorescence quantum yield; assay type: physicochemical; settings: for Φ, fluorescence quantum yield: ±15%; for pH sensitivity of fluorescence: biologically relevant pH range
Method: Absorption spectra were recorded on a Hewlett-Packard 8453 diode array spectrophotometer, and fluorescence spectra were obtained with Amico-Bowman series 2 luminescence spectrometer with a 1-cm standard quartz cell. The fluorescence quantum yield was determined by using Coumarin 307 and Rhodamine B as the reference.

[2] = test system: A549 cells; settings: 0.049 µM
[3] = test system: Human colon cancer tissue and normal tissue; assay: TPM imaging of AG2 uptake in human colon normal and cancer tissue slices
Method: In the present invention, an additional assessment was made of the utility of AG2 in tissue imaging for the diagnosis of colon cancer. In this regard, the images of normal- and cancer-tissue slices from colon-cancer patients were employed. […] The tissues were incubated in artificial cerebrospinal fluid (ACSF) for 4 h at 37° C. in the absence and presence of taxol (50 μM), after which AG2 uptake was monitored with TPM by following the change in TPEF at a depth of 100 μm.
Human colon cancer tissue and normal tissue were obtained from colon cancer patients by conducting colonoscopic examinations and taking samples.
Normal tissues, cancerous tissue, and cancerous tissue containing 50 μM taxol were incubated in artificial cerebrospinal fluid (ACSF) bubbled with 95% O2 and 5% CO2 for 4 hrs at 37° C. The tissues were then washed three times with ACSF, transferred to glass-bottomed dishes (MatTek), added with 50 μM AG2, and observed by TPM.
To determine whether the relative uptake was affected by incubation in ACSF, the same experiment was conducted with normal tissue and colon cancerous tissue obtained immediately after the colonoscopic biopsy.

[4] = test system: A549 cells; assay: Effect of anticancer agents on AG2 uptake by A549 cells
[5] = from The Handbook (Molecular Probes); cited from earlier work
[6] = Measurement of two-photon cross section (TPEF method); assay type: physicochemical; settings: for Φδmax, two-photon action cross-section / λmax of the two-photon absorption spectrum / δmax, peak two-photon cross-section: PBS buffer; for δmax, peak two-photon cross-section: ±15%
Method: The two-photon cross section (δ) was determined using the femto second (fs) fluorescence measurement technique as described previously. AG1, AG2, Cy3-Glc-α, and 2-NBDG were dissolved in 30 mM PBC buffer (137 mM NaCl, 3 mM KCl, 10 mM Na2HPO4, 2 mM KH2PO4, pH 7.4) at a concentration of 5.0×10^−6 M and then the two-photon induced fluorescence intensity was measured at 740-940 nm by using fluorescein (8.0×10^−5 M, pH=11) as the reference, whose two-photon property has already been well characterized. The intensities of the two photon induced fluorescence spectra of the reference and sample emitted at the same excitation wavelength were determined.
The TPA cross section was calculated according to Eq. 1,
The results are shown in FIG. 1 and the above-described Table 1.

[7] = test system: A549 cells; assay: Tracer uptake by A549 cells, TPM imaging (optimum concentration); assay type: cell-based; settings: for Cell death in A549 cells: 100 μM probe, 30 min; for Uptake rate (time) in A549 cells: A549 cells labeled with tracer
Method: (§1) A549 human lung carcinoma cells, HeLa human cervical carcinoma cells, NIH/3T3 murine fibroblast cells, and HEK293 human embryonic kidney cells were obtained from American Type Culture Collection (ATCC, Manassas, Va., USA). A549 cells were cultured in RPMI 1640 (WelGene) supplemented with heat-inactivated 10% FBS (WelGene), penicillin (100 units/mL), and streptomycin (100 μg/mL).
For labeling, the growth medium was removed and replaced with serum-free RPMI 1640 (without D-glucose) (United Search Partners, Austin, Tex., USA).
The cells were treated and incubated with the required concentration of a tracker at 37° C. for 10 min.
Thereafter, the cells were washed three times with phosphate buffered saline (PBS; Gibco) and then imaged.
(§2) For comparison of the relative uptake of AG1 and AG2 per unit cell, the TPEF intensities from regions of interest were chosen without bias from among 40-60 cells as determined by the photomultiplier tube (PMT) and the data were digitalized using Histogram (a program for data analysis).
In determine the optimum concentration for the uptake experiment, TPM images of A549 cells labeled for 30 min with 6, 12.5, 25, 50, and 100 μM of AG1 and AG2 were compared. The image appeared brighter as the probe concentration was increased up to 50 μM; however, at higher concentrations than this, cell death was observed.
Moreover, the uptake rate was faster (600 vs 800 s) and the TPM image was brighter when the cells were labeled with AG2 than when they were treated with AG1 (FIG. 3). Therefore, 50 μM of AG2 was used for the uptake experiments.

[8] = test system: A549 cells; assay: Competition experiment for uptake pathway; assay type: cell-based, human; settings: for Reduction of AG2 fluorescence intensity in A549 cells: AG2 50 μM, 10 min
Method: To determine whether the intracellular uptake pathway of AG2 is relevant to that of D-glucose, a competition experiment was conducted.
To this end, A549 cells were incubated with AG2 (50 μM) for 10 min in the presence of 0, 10, and 50 mM D-glucose, and 50 mM L-glucose, and relative AG2 uptake was determined by TPM.

[9] = test system: A549 cells; assay: Viability of A549 cells with CCK-8 kit; assay type: cell-based, human; settings: 50 μM, 10 min
Method: FIG. 7: Viability of A549 cells in the presence of AG2 as measured by using CCK-8 kit. The cells were incubated with 50 μM AG2 for 10 min.
In order to confirm that the tracer couldn't affect the viability of A549 cells in the incubation condition, a CCK-8 kit (Cell Counting Kit-8, Dojindo, Japan) was used according to the manufacturer's protocol.

[10] = test system: A549, HeLa, HEK293 and NIH/3T3 cells; assay: Relative AG2 uptake by cancer and normal cell lines (TPM); assay type: cell-based; settings: A549, HeLa vs HEK293, NIH/3T3
Text: In order to assess whether AG2 is selectively taken up by cancer cells, the efficiencies of AG2 uptake by A549 (lung carcinoma cell line), HeLa (cervical cancer cell line), HEK293 (human embryonic kidney 293 cell line), and NIH/3T3 (murine fibroblast cell line) cells were compared. […] Therefore, AG2 can be used for visualizing glucose uptake in living cells by TPM, without subjecting the cells to glucose starvation.
as §1
NIH/3T3 cells, HeLa cells, and HEK293 cells were cultured in DMEM (WelGene) supplemented with heat-inactivated 10% FBS (WelGene), penicillin (100 units/mL), and streptomycin (100 μg/mL). All the cell lines were maintained in a humidified atmosphere of 5% CO2 and 95% air at 37° C. […]
as §2

## cyanine-3-linked O-1-glycosylated glucose [Cy3-Glc-α, reference compound]
[1]; PBS buffer
  λ(1)max, one-photon absorption maximum: 545 nm
  λflmax, one-photon emission maximum: 555 nm
  Φ, fluorescence quantum yield: 0.01

## CC(=O)O[C@H]1C(=O)[C@@]2(C)[C@H]([C@H](OC(=O)c3ccccc3)[C@]3(O)C[C@H](OC(=O)[C@H](O)[C@@H](NC(=O)c4ccccc4)c4ccccc4)C(C)=C1C3(C)C)[C@]1(OC(C)=O)CO[C@@H]1C[C@@H]2O [Taxol, taxol]
[2]; 6 h
  AG2 uptake by A549: 89.6%
[2]; 12 h
  AG2 uptake by A549: 69.5%
[3]; colon cancer tissue, agent 50 μM for 4 hrs in ACSF, depth 100 μm
  AG2 uptake of cancer tissue pretreated with agent: much slower AG2 uptake than the untreated one
[4]; A549 cells incubated 1, 3, 6, 12, 24 h with agent
  Cellular uptake of AG2 versus incubation time with agent: lower with longer incubation times
[4]; agent 49 nM (second line, r8), after 6 h
  AG2 uptake by A549: 96.7%
[4]; agent 49 nM (second line, r8), after 12 h
  AG2 uptake by A549: 81.8%
[4]; agent 9.8 μM, after 6 h
  AG2 uptake by A549: 69.5%
[4]; agent 9.8 μM, after 12 h
  AG2 uptake by A549: 50.7%

## O=[N+]([O-])c1ccc(NC2C(O)OC(CO)C(O)C2O)c2nonc12 [2-NBDG, 2-[N-(7-nitrobenz-2-oxa-1,3-diazol-4-yl)-amino]-2-deoxy-D-glucose]
[5]
  λ(1)max, one-photon absorption maximum: 465 nm
  λflmax, one-photon emission maximum: 540 nm

## COc1ccc(C[C@@H](O)c2cc(OC)c(OC)c(OC)c2)cc1O [Combrestastatin, combretastatin]
[4]; agent 2 μM, after 6 h
  AG2 uptake by A549: 70.2%
[4]; agent 2 μM, after 12 h
  AG2 uptake by A549: 53.2%

## CC(=O)c1ccc2cc(N(C)CC(=O)NCCOCCOCCNCCOC3OC(CO)C(O)C(O)C3O)ccc2c1 (centres unmarked) [AG1]
[6]
  Φδmax, two-photon action cross-section: 86 GM
  λmax of the two-photon absorption spectrum: 780 nm
  δmax, peak two-photon cross-section: 95 GM
[6]; at 780 nm
  Φδ value from TP action spectrum: approximately 90 GM
[1]; DMF (ETN 0.386)
  λ(1)max, one-photon absorption maximum: 366 nm
  λflmax, one-photon emission maximum: 451 nm
  Φ, fluorescence quantum yield: 1.00
[1]; Dioxane (ETN 0.164)
  λ(1)max, one-photon absorption maximum: 360 nm
  λflmax, one-photon emission maximum: 434 nm
  Φ, fluorescence quantum yield: 0.59
[1]; EtOH (ETN 0.654)
  λ(1)max, one-photon absorption maximum: 364 nm
  λflmax, one-photon emission maximum: 479 nm
  Φ, fluorescence quantum yield: 1.00
[1]; H2O (ETN 1.00)
  λ(1)max, one-photon absorption maximum: 373 nm
  λflmax, one-photon emission maximum: 501 nm
  Φ, fluorescence quantum yield: 0.90
[1]; PBS buffer
  λ(1)max, one-photon absorption maximum: 373 nm
  λflmax, one-photon emission maximum: 501 nm
  Φ, fluorescence quantum yield: 0.90
[1]
  pH sensitivity of fluorescence: pH insensitive
[7]
  Cell death in A549 cells: some cell death was observed
  Uptake rate (time) in A549 cells: 800 s

## CC(=O)c1ccc2cc(N(C)CC(=O)N3CCN(CCOC4OC(CO)C(O)C(O)C4O)CC3)ccc2c1 (centres unmarked) [AG2]
[8]; medium with 10 mM D-glucose vs glucose-depleted medium
  Reduction of AG2 fluorescence intensity in A549 cells: about 16%
[8]; medium with 50 mM D-glucose vs glucose-depleted medium
  Reduction of AG2 fluorescence intensity in A549 cells: ~74%
[8]; medium with 50 mM L-glucose
  AG2 fluorescence intensity in A549 cells: not affected
[8]; presence of 55 mM D-/L-alanine
  AG2 uptake by A549 cells: not influenced
[3]; colon tissue slices, 50 μM AG2, depth 100 μm
  AG2 uptake in cancer tissue versus normal tissue: much faster than in the normal tissue
[6]
  Φδmax, two-photon action cross-section: 88 GM
  λmax of the two-photon absorption spectrum: 780 nm
  δmax, peak two-photon cross-section: 155 GM
[9]
  Effect on viability of cells (CCK8 kit): negligible toxicity
[1]; DMF (ETN 0.386)
  λ(1)max, one-photon absorption maximum: 369 nm
  λflmax, one-photon emission maximum: 449 nm
  Φ, fluorescence quantum yield: 1.00
[1]; Dioxane (ETN 0.164)
  λ(1)max, one-photon absorption maximum: 362 nm
  λflmax, one-photon emission maximum: 425 nm
  Φ, fluorescence quantum yield: 0.72
[1]; EtOH (ETN 0.654)
  λ(1)max, one-photon absorption maximum: 370 nm
  λflmax, one-photon emission maximum: 480 nm
  Φ, fluorescence quantum yield: 0.97
[1]; H2O (ETN 1.00)
  λ(1)max, one-photon absorption maximum: 375 nm
  λflmax, one-photon emission maximum: 501 nm
  Φ, fluorescence quantum yield: 0.56
[1]; PBS buffer
  λ(1)max, one-photon absorption maximum: 375 nm
  λflmax, one-photon emission maximum: 501 nm
  Φ, fluorescence quantum yield: 0.56
[1]
  pH sensitivity of fluorescence: pH insensitive
[7]
  Cell death in A549 cells: some cell death was observed
  Uptake rate (time) in A549 cells: 600 s
[10]
  Efficiency of AG2 uptake by cell lines: most efficient in A549 and HeLa cells, followed by HEK293 and NIH/3T3 cells
